Data set [1] has as its target Peptidyl-prolyl cis-trans isomerase NIMA-interacting 1 (Homo sapiens, UniProt Q13526). Briefly: Inhibition of full length pin1 (unknown origin) expressed in Escherichia coli.
Data set [2] is described as follows: Antiproliferative activity against human HCC cells assessed as cell viability incubated for 72 hrs by alamar blue dye based assay. Format: toxicity. The following applies: for IC50 at 72 h: HCC cells. A general note: Alamar Blue is a resazurin reagent that responds to reducing activity.
The test system of data set [3] is SK-HEP1. The experiment in a line: Inhibition of colony formation human SK-HEP1 cells at 2.5 uM incubated for 5 days by crystal violet staining based analysis. Format: functional, cell-based. To be noted: time 5.0 day.
Data set [4] has as its system SK-HEP1. Briefly: Antiproliferative activity human SK-HEP1 cells assessed as cell viability measured up to 120 hrs. Format: functional, cell-based.
Data set [5] concerns SK-HEP1. The experiment in a line: Antiproliferative activity human SK-HEP1 cells assessed as cell viability measured at 96 hrs. Format: functional, cell-based.
Data set [6] relates to SK-HEP1. The experiment in a line: Antiproliferative activity human SK-HEP1 cells assessed as cell viability measured at 120 hrs. Format: functional, cell-based.
Data set [7] deals with SK-HEP1. The experiment in a line: Inhibition of cell migration in human SK-HEP1 cells at 5 uM incubated for 24 hrs by crystal violet staining based microscopic analysis. Format: functional.

Active and inactive are the calls of the source. The rule behind the calls is not given here.

Peptidyl-prolyl cis-trans isomerase NIMA-interacting 1, sequence (Q13526 whole entry): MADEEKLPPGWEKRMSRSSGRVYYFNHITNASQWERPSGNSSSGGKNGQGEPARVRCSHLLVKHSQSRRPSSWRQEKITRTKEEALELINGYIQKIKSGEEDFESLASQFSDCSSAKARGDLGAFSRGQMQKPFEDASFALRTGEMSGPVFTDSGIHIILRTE

As to `Nc1nc(OCc2cccc(Cl)c2)c2nc[nH]c2n1`, in data set [1], the concentration for half-maximal inhibition (IC50) (as a rule, the concentration that gives 50% inhibition) is 0.179 µM. Also, in data set [2], the 50% inhibitory concentration (IC50) at 72 h came out at 4 µM.

In turn, `Nc1nc(OCC2CCCCC2)c2nc[nH]c2n1` registered a concentration for half-maximal inhibition (IC50) in data set [1] of 5.69 µM. Further, the IC50 at 72 h in data set [2] is 29.6 µM.

For `COc1ccc(COc2nc(N)nc3[nH]cnc23)cc1`, half-maximal inhibition in data set [1] (IC50) was put at 5.39 µM. Moreover, in data set [2], the 50% inhibitory concentration (IC50) at 72 h came to 4.2 µM.

In the case of `Cc1cccc(COc2nc(N)nc3nc[nH]c23)c1`, the concentration for half-maximal inhibition (IC50) in data set [1] came to 0.208 µM. Further, the IC50 at 72 h in data set [2] came to 5.5 µM.

Consider `Nc1nc(OCc2cccc(Oc3ccccc3)c2)c2nc[nH]c2n1`, for which the half-inhibitory concentration (IC50) in data set [1] was more than 50 µM. Also, the half-maximal inhibitory concentration (IC50) at 72 h in data set [2] is 34.3 µM.

In data set [1], `Nc1nc(OCc2cccc3ccccc23)c2nc[nH]c2n1` came in with a half-maximal inhibitory concentration (IC50) of 5.79 µM. Besides, the IC50 at 72 h in data set [2] worked out at 33 µM.

For the compound `O=C1C=CC(=O)c2c(O)cccc21`, the inhibition entry in the data set on SK-HEP1 [3] is “Active”.

Compound `Nc1nc(OCc2cc(F)ccc2Br)c2nc[nH]c2n1` returned an IC50 in data set [1] of 1.65 µM. The IC50 at 72 h in data set [2] came to 22.2 µM.

In the case of `CCCCOc1nc(N)nc2[nH]cnc12`, the IC50 in data set [1] stood at 18.3 µM. Further, the IC50 at 72 h in data set [2] is more than 50 µM.

Take `CSc1ccc(COc2nc(N)nc3[nH]cnc23)cc1`: in data set [1], the half-inhibitory concentration (IC50) was 0.829 µM. The IC50 at 72 h in data set [2] turned out to be 6.9 µM.

Compound `Nc1nc(OCc2cccc(F)c2)c2nc[nH]c2n1` registered a 50% inhibitory concentration (IC50) in data set [1] of 34.5 µM. Also, the concentration for half-maximal inhibition (IC50) at 72 h in data set [2] came out at 3.3 µM.

Turning to `COc1cccc(COc2nc(N)nc3c2ncn3Cc2ccccc2)c1`, in data set [1], inhibition was half-maximal at 1.46 µM (IC50). In data set [2], the IC50 at 72 h is more than 50 µM.

Turning to `COc1cccc(Oc2nc(N)nc3[nH]cnc23)c1`, in data set [1], half-maximal inhibition (IC50) was put at 28.2 µM. For the same compound, the half-maximal inhibitory concentration (IC50) at 72 h in data set [2] is more than 50 µM.

`Nc1nc(OCc2cccc(Cl)c2Cl)c2nc[nH]c2n1` had a 50% inhibitory concentration (IC50) in data set [1] of more than 50 µM. Also, the IC50 at 72 h in data set [2] is 13.3 µM.

`Nc1nc(SCc2ccccc2)c2[nH]cnc2n1`: in data set [1], the half-maximal inhibitory concentration (IC50) was determined as 2.06 µM. Also, in data set [2], the 50% inhibitory concentration (IC50) at 72 h is 10.4 µM.

Regarding `COCOc1cccc(COc2nc(N)nc3[nH]cnc23)c1`, in data set [1], the IC50 came out at 0.508 µM. Also, the 50% inhibitory concentration (IC50) at 72 h in data set [2] amounted to 7.6 µM.

Consider `CCOC(=O)Cn1cnc2c(OCc3cccc(Oc4ccccc4)c3)nc(N)nc21`, for which the IC50 in data set [1] was more than 50 µM. Moreover, the IC50 at 72 h in data set [2] was more than 50 µM.

In the case of `Nc1nc(OCc2ccc(Br)cc2)c2[nH]cnc2n1`, the midpoint of inhibition in data set [1], the IC50, lay at 0.256 µM. In addition, in data set [2], the IC50 at 72 h worked out at 4.8 µM.

As for `COC(=O)Cn1cnc2c(OCc3cccc(Cl)c3Cl)nc(N)nc21`, the midpoint of inhibition in data set [1], the IC50, lay at 0.829 µM. Besides, the half-maximal inhibitory concentration (IC50) at 72 h in data set [2] was more than 50 µM.

Regarding `Nc1nc(OCc2ccc(CNC(=O)C(F)(F)F)cc2)c2nc[nH]c2n1`, in data set [1], the midpoint of inhibition, the IC50, lay at 0.148 µM. For the same compound, in data set [2] (hcc, 72 h), the Activity entry is “Non-toxic”. The outcome in the data set with SK-HEP1 [4], in the data set on SK-HEP1 [5] and with SK-HEP1 [6] was Active. The inhibition entry with SK-HEP1 [3] and in the data set with SK-HEP1 [7] was “Active” each time.

`CC(=O)NCc1ccc(COc2nc(N)nc3[nH]cnc23)cc1` displayed a concentration for half-maximal inhibition (IC50) in data set [1] of 0.125 µM. In data set [2], the IC50 at 72 h amounted to 5.3 µM.

With `Nc1nc(OCc2cccs2)c2nc[nH]c2n1`, the 50% inhibitory concentration (IC50) in data set [1] came out at 7.15 µM. The half-maximal inhibitory concentration (IC50) at 72 h in data set [2] amounted to 42.2 µM.

As for `Nc1nc(OCc2ccccc2Cl)c2nc[nH]c2n1`, the IC50 in data set [1] stood at 0.148 µM. The IC50 at 72 h in data set [2] stood at 5.6 µM.

In the case of `CCOC(=O)Cn1cnc2c(OCc3cccc(Cl)c3Cl)nc(N)nc21`, the IC50 in data set [1] was more than 50 µM. The half-maximal inhibitory concentration (IC50) at 72 h in data set [2] was more than 50 µM.

In the case of `COCOc1ccc(COc2nc(N)nc3[nH]cnc23)cc1OC`, in data set [1], the IC50 is 0.519 µM. Also, the 50% inhibitory concentration (IC50) at 72 h in data set [2] is more than 50 µM.

Take `COc1cc(COc2nc(N)nc3[nH]cnc23)cc(OC)c1OC`: 7.85 µM corresponded to half-maximal inhibition in data set [1] (IC50). Also, in data set [2], the IC50 at 72 h is more than 50 µM.

The compound `CCOC(=O)Cn1cnc2c(OCc3cccc(OC)c3)nc(N)nc21` showed an IC50 in data set [1] of 21.7 µM. Besides, in data set [2], the concentration for half-maximal inhibition (IC50) at 72 h is more than 50 µM.

For `CCOC(=O)Cn1cnc2c(OCc3cccc(F)c3)nc(N)nc21`, the IC50 in data set [1] stood at 8.03 µM. For the same compound, the IC50 at 72 h in data set [2] was more than 50 µM.

In turn, `COc1cccc(COc2nc(N)nc3[nH]cnc23)c1` displayed an IC50 in data set [1] of 13.5 µM. The IC50 at 72 h in data set [2] amounted to 6.6 µM.

Turning to `Nc1nc(OCc2cccc(Br)c2)c2nc[nH]c2n1`, the half-inhibitory concentration (IC50) in data set [1] stood at 0.64 µM. In data set [2], the IC50 at 72 h was determined as 11.3 µM.

In data set [1], `Cc1ccc(COc2nc(N)nc3nc[nH]c23)cc1` returned an IC50 of 0.293 µM. The IC50 at 72 h in data set [2] was found to be 6.1 µM.

For the compound `CCOC(=O)CCCn1cnc2c(OCc3cccc(OC)c3)nc(N)nc21`, in data set [1], the half-inhibitory concentration (IC50) turned out to be 19.1 µM. In addition, the IC50 at 72 h in data set [2] was more than 50 µM.

In turn, `Nc1nc(OCc2cccc(C(F)(F)F)c2)c2nc[nH]c2n1` returned an IC50 in data set [1] of 0.634 µM. Also, the IC50 at 72 h in data set [2] amounted to 16 µM.

The compound `Nc1nc(OCc2cc(OCc3ccccc3)cc(OCc3ccccc3)c2)c2nc[nH]c2n1` gave a 50% inhibitory concentration (IC50) in data set [1] of 11.1 µM. Further, the concentration for half-maximal inhibition (IC50) at 72 h in data set [2] was 38.5 µM.

Regarding `Nc1nc(OCc2cc(F)ccc2F)c2nc[nH]c2n1`, the 50% inhibitory concentration (IC50) in data set [1] came to 0.36 µM. The concentration for half-maximal inhibition (IC50) at 72 h in data set [2] is 16.6 µM.

In data set [1], `Cc1ccc(COc2nc(N)nc3[nH]cnc23)cc1C` registered an IC50 of 0.951 µM. Besides, in data set [2], the IC50 at 72 h stood at 5.3 µM.

In turn, `Nc1nc(OCc2ccccc2-c2ccccc2)c2nc[nH]c2n1` registered an IC50 in data set [1] of 8.03 µM. Further, the IC50 at 72 h in data set [2] turned out to be 28.9 µM.

In data set [1], `Nc1nc(OCc2ccccc2)c2[nH]cnc2n1` [6-O-BENZYLGUANINE] displayed an IC50 of 0.0914 µM. Further, the IC50 at 72 h in data set [2] is 8.5 µM.

As for `Nc1nc(OCCCc2ccccc2)c2nc[nH]c2n1`, the IC50 in data set [1] is 3.63 µM. In data set [2], the half-maximal inhibitory concentration (IC50) at 72 h worked out at 35.6 µM.

As for `COc1cc(COc2nc(N)nc3[nH]cnc23)ccc1OCc1ccccc1`, it took 11.1 µM to reach half-maximal inhibition in data set [1] (IC50). In data set [2], the IC50 at 72 h was determined as 11.2 µM.

For the origin of these results see ChEMBL document CHEMBL6096731, “Structure-Guided Optimization and Preclinical Evaluation of 6-O-Benzylguanine-Based Pin1 Inhibitor for Hepatocellular Carcinoma Treatment” (J Med Chem, 2025).
